Results on 29 compounds are retold here after patent US20250353855A1, “HETEROCYCLIC AND HETEROARYL COMPOUNDS FOR TREATING HUNTINGTON'S DISEASE” (PTC THERAPEUTICS, INC., priority 2022, published 2025).

The first experiment concerns Endogenous Huntingtin Protein. Description: Endogenous Huntingtin Protein Assay (ELISA-based MSD electrochemiluminescence). The conditions noted are these: MSD plates coated with MW1 (expanded polyglutamine) or MAB2166 capture antibody; lysates. Format: cell-based. The method, boiled down:
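Electrochemiluminescence sandwich ELISA for endogenous huntingtin: capture with MW1 (expanded polyglutamine) or MAB2166 antibody at 1 μg/mL, samples incubated overnight at 4° C. Detection with rabbit monoclonal #5656S then goat anti-rabbit SULFO-TAG antibody (each 0.25 μg/mL, 1 h room temperature), read on MSD imager.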
Compound `Cn1ncc2cc(O)c(-c3cc4c(nn3)N([C@H]3CC(C)(C)NC(C)(C)[C@H]3F)CC4)cc21` [Cpd 62, 6-{7-[(3S,4S)-3-fluoro-2,2,6,6-tetramethylpiperidin-4-yl]-6,7-dihydro-5H-pyrrolo[2,3-c]pyridazin-3-yl}-1-methyl-1H-indazol-5-ol] displayed an IC50 of less than 100 nM.

As for `CC1(C)C[C@H](N2CCc3cc(-c4cc5ncccc5cc4O)nnc32)[C@H](F)C(C)(C)N1` [Cpd 80, 7-{7-[(3S,4S)-3-fluoro-2,2,6,6-tetramethylpiperidin-4-yl]-6,7-dihydro-5H-pyrrolo[2,3-c]pyridazin-3-yl}quinolin-6-ol], the IC50 was less than 100 nM.

As for `COc1cnc2cc(-c3cc4c(nn3)N([C@H]3CC(C)(C)NC(C)(C)[C@H]3F)CC4)c(O)cc2n1` [Cpd 84, 7-{7-[(3S,4S)-3-fluoro-2,2,6,6-tetramethylpiperidin-4-yl]-6,7-dihydro-5H-pyrrolo[2,3-c]pyridazin-3-yl}-3-methoxyquinoxalin-6-ol], the IC50 is less than 100 nM.

The same experiment, now with this note: MSD plates coated with MW1 (expanded polyglutamine) or MAB2166 capture antibody; lysates; read-out: IC50.
`Cc1nc2cc(O)c(-c3cc4c(nn3)N([C@H]3CC(C)(C)NC(C)(C)[C@H]3F)CC4)cc2s1` [Cpd 52, 6-{7-[(3S,4S)-3-fluoro-2,2,6,6-tetramethylpiperidin-4-yl]-6,7-dihydro-5H-pyrrolo[2,3-c]pyridazin-3-yl}-2-methyl-1,3-benzothiazol-5-ol]: the IC50 was less than 100 nM.

In the case of `CC1(C)C[C@H](N2CCc3cc(-c4cc5cccnc5cc4O)nnc32)[C@H](F)C(C)(C)N1` [Cpd 53, 6-{7-[(3S,4S)-3-fluoro-2,2,6,6-tetramethylpiperidin-4-yl]-6,7-dihydro-5H-pyrrolo[2,3-c]pyridazin-3-yl}quinolin-7-ol], the IC50 was less than 100 nM.

Consider `CC1(C)C[C@H](N2CCc3cc(-c4cc5cnccc5cc4O)nnc32)[C@H](F)C(C)(C)N1` [Cpd 54, 7-{7-[(3S,4S)-3-fluoro-2,2,6,6-tetramethylpiperidin-4-yl]-6,7-dihydro-5H-pyrrolo[2,3-c]pyridazin-3-yl}isoquinolin-6-ol], for which the IC50 is less than 100 nM.

For `Cc1cnc2cc(O)c(-c3cc4c(nn3)N([C@H]3CC(C)(C)NC(C)(C)[C@H]3F)CC4)cc2n1` [Cpd 55, 7-{7-[(3S,4S)-3-fluoro-2,2,6,6-tetramethylpiperidin-4-yl]-6,7-dihydro-5H-pyrrolo[2,3-c]pyridazin-3-yl}-2-methylquinoxalin-6-ol], the IC50 is less than 100 nM.

With `Cc1cnc2cc(-c3cc4c(nn3)N([C@H]3CC(C)(C)NC(C)(C)[C@H]3F)CC4)c(O)cc2n1` [Cpd 56, 7-{7-[(3S,4S)-3-fluoro-2,2,6,6-tetramethylpiperidin-4-yl]-6,7-dihydro-5H-pyrrolo[2,3-c]pyridazin-3-yl}-3-methylquinoxalin-6-ol], the IC50 was less than 100 nM.

Consider `O=C1CCc2cc(-c3cc4c(nn3)N([C@H]3CCNC5(CC5)C3)CC4)c(O)cc21` [Cpd 57, 5-{7-[(7S)-4-azaspiro[2.5]octan-7-yl]-6,7-dihydro-5H-pyrrolo[2,3-c]pyridazin-3-yl}-6-hydroxy-2,3-dihydro-1H-inden-1-one], for which the IC50 fell in the range of 100 to 500 nM.

In the case of `O=c1ccc2cc(-c3cc4c(nn3)N([C@H]3CCNC5(CC5)C3)CC4)c(O)cc2o1` [Cpd 59, 6-{7-[(7S)-4-azaspiro[2.5]octan-7-yl]-6,7-dihydro-5H-pyrrolo[2,3-c]pyridazin-3-yl}-7-hydroxy-2H-1-benzopyran-2-one], the IC50 is less than 100 nM.

For the compound `CO/N=C1/CCc2cc(-c3cc4c(nn3)N([C@H]3CCNC5(CC5)C3)CC4)c(O)cc21` [Cpd 60, (3Z)-6-{7-[(7S)-4-azaspiro[2.5]octan-7-yl]-6,7-dihydro-5H-pyrrolo[2,3-c]pyridazin-3-yl}-3-(methoxyimino)-2,3-dihydro-1H-inden-5-ol], the half-inhibitory concentration (IC50) was 500 to 1000 nM.

On to `Cc1cc(=O)oc2cc(O)c(-c3cc4c(nn3)N([C@H]3CC(C)(C)NC(C)(C)[C@H]3F)CC4)cc12` [Cpd 65, 6-{7-[(3S,4S)-3-fluoro-2,2,6,6-tetramethylpiperidin-4-yl]-6,7-dihydro-5H-pyrrolo[2,3-c]pyridazin-3-yl}-7-hydroxy-4-methyl-2H-1-benzopyran-2-one], for which the IC50 is less than 100 nM.

Turning to `Cc1cc(=O)oc2cc(O)c(-c3cc4c(nn3)N([C@H]3CCNC5(CC5)C3)CC4)cc12` [Cpd 66, 6-{7-[(7S)-4-azaspiro[2.5]octan-7-yl]-6,7-dihydro-5H-pyrrolo[2,3-c]pyridazin-3-yl}-7-hydroxy-4-methyl-2H-1-benzopyran-2-one], the IC50 was less than 100 nM.

For the compound `CC1(C)C[C@H](N2CCc3cc(-c4cc5ccc(=O)oc5cc4O)nnc32)[C@H](F)C(C)(C)N1` [Cpd 67, 6-{7-[(3S,4S)-3-fluoro-2,2,6,6-tetramethylpiperidin-4-yl]-6,7-dihydro-5H-pyrrolo[2,3-c]pyridazin-3-yl}-7-hydroxy-2H-1-benzopyran-2-one], the IC50 is less than 100 nM.

With `Cc1cc(=O)c2cc(-c3cc4c(nn3)N([C@H]3CC(C)(C)NC(C)(C)[C@H]3F)CC4)c(O)cc2o1` [Cpd 68, 6-{7-[(3S,4S)-3-fluoro-2,2,6,6-tetramethylpiperidin-4-yl]-6,7-dihydro-5H-pyrrolo[2,3-c]pyridazin-3-yl}-7-hydroxy-2-methyl-4H-1-benzopyran-4-one], the IC50 is less than 100 nM.

In the case of `CC1(C)C[C@H](N2CCc3cc(-c4cc5c(=O)ccoc5cc4O)nnc32)[C@H](F)C(C)(C)N1` [Cpd 69, 6-{7-[(3S,4S)-3-fluoro-2,2,6,6-tetramethylpiperidin-4-yl]-6,7-dihydro-5H-pyrrolo[2,3-c]pyridazin-3-yl}-7-hydroxy-4H-1-benzopyran-4-one], the IC50 was less than 100 nM.

Regarding `CC1(C)C[C@H](N2CCc3cc(-c4cc5ccncc5cc4O)nnc32)[C@H](F)C(C)(C)N1` [Cpd 70, 6-{7-[(3S,4S)-3-fluoro-2,2,6,6-tetramethylpiperidin-4-yl]-6,7-dihydro-5H-pyrrolo[2,3-c]pyridazin-3-yl}isoquinolin-7-ol], the 50% inhibitory concentration (IC50) is less than 100 nM.

For the compound `Cc1nc2cc(O)c(-c3cc4c(nn3)N(C3CC5(CC5)NC5(CC5)C3)CC4)cc2s1` (centres unmarked) [Cpd 71, 6-[7-(4-azadispiro[2.1.25.33]decan-9-yl)-6,7-dihydro-5H-pyrrolo[2,3-c]pyridazin-3-yl]-2-methyl-1,3-benzothiazol-5-ol], the IC50 was less than 100 nM.

Regarding `Cc1nc2cc(O)c(-c3cc4c(nn3)N(C3CC5(CC5)NC5(CC5)C3)CC4)cc2o1` (centres unmarked) [Cpd 72, 6-[7-(4-azadispiro[2.1.25.33]decan-9-yl)-6,7-dihydro-5H-pyrrolo[2,3-c]pyridazin-3-yl]-2-methyl-1,3-benzoxazol-5-ol], the IC50 was less than 100 nM.

Consider `Cc1cc2cc(-c3cc4c(nn3)N([C@H]3CC(C)(C)NC(C)(C)[C@H]3F)CC4)c(O)cc2oc1=O` [Cpd 73, 6-{7-[(3S,4S)-3-fluoro-2,2,6,6-tetramethylpiperidin-4-yl]-6,7-dihydro-5H-pyrrolo[2,3-c]pyridazin-3-yl}-7-hydroxy-3-methyl-2H-1-benzopyran-2-one], for which the half-inhibitory concentration (IC50) was less than 100 nM.

Take `Cc1cnc2cc(-c3cc4c(nn3)N([C@H]3CC(C)(C)NC(C)(C)[C@H]3F)CC4)c(O)cc2c1` [Cpd 75, 7-{7-[(3S,4S)-3-fluoro-2,2,6,6-tetramethylpiperidin-4-yl]-6,7-dihydro-5H-pyrrolo[2,3-c]pyridazin-3-yl}-3-methylquinolin-6-ol]: the IC50 is less than 100 nM.

Turning to `Cc1ccc2cc(-c3cc4c(nn3)N([C@H]3CC(C)(C)NC(C)(C)[C@H]3F)CC4)c(O)cc2n1` [Cpd 76, 6-{7-[(3S,4S)-3-fluoro-2,2,6,6-tetramethylpiperidin-4-yl]-6,7-dihydro-5H-pyrrolo[2,3-c]pyridazin-3-yl}-2-methylquinolin-7-ol], the IC50 was less than 100 nM.

As to `Cc1ccc2cc(O)c(-c3cc4c(nn3)N([C@H]3CC(C)(C)NC(C)(C)[C@H]3F)CC4)cc2n1` [Cpd 77, 7-{7-[(3S,4S)-3-fluoro-2,2,6,6-tetramethylpiperidin-4-yl]-6,7-dihydro-5H-pyrrolo[2,3-c]pyridazin-3-yl}-2-methylquinolin-6-ol], the IC50 is less than 100 nM.

For `COc1cc(=O)oc2cc(O)c(-c3cc4c(nn3)N([C@H]3CC(C)(C)NC(C)(C)[C@H]3F)CC4)cc12` [Cpd 78, 6-{7-[(3S,4S)-3-fluoro-2,2,6,6-tetramethylpiperidin-4-yl]-6,7-dihydro-5H-pyrrolo[2,3-c]pyridazin-3-yl}-7-hydroxy-4-methoxy-2H-1-benzopyran-2-one], the concentration for half-maximal inhibition (IC50) is less than 100 nM.

With `Cc1cnc2cc(O)c(-c3cc4c(nn3)N([C@H]3CC(C)(C)NC(C)(C)[C@H]3F)CC4)cc2c1` [Cpd 81, 6-{7-[(3S,4S)-3-fluoro-2,2,6,6-tetramethylpiperidin-4-yl]-6,7-dihydro-5H-pyrrolo[2,3-c]pyridazin-3-yl}-3-methylquinolin-7-ol], the IC50 was less than 100 nM.

`CC1(C)C[C@H](N2CCc3cc(-c4cc5occc(=O)c5cc4O)nnc32)[C@H](F)C(C)(C)N1` [Cpd 82, 7-{7-[(3S,4S)-3-fluoro-2,2,6,6-tetramethylpiperidin-4-yl]-6,7-dihydro-5H-pyrrolo[2,3-c]pyridazin-3-yl}-6-hydroxy-4H-1-benzopyran-4-one]: the IC50 is less than 100 nM.

With `Cc1cc(=O)c2cc(O)c(-c3cc4c(nn3)N([C@H]3CC(C)(C)NC(C)(C)[C@H]3F)CC4)cc2o1` [Cpd 83, 7-{7-[(3S,4S)-3-fluoro-2,2,6,6-tetramethylpiperidin-4-yl]-6,7-dihydro-5H-pyrrolo[2,3-c]pyridazin-3-yl}-6-hydroxy-2-methyl-4H-1-benzopyran-4-one], the IC50 was less than 100 nM.

As to `CC1(C)C[C@H](N2CCc3cc(-c4cc5nsnc5cc4O)nnc32)[C@H](F)C(C)(C)N1` [Cpd 85, 6-{7-[(3S,4S)-3-fluoro-2,2,6,6-tetramethylpiperidin-4-yl]-6,7-dihydro-5H-pyrrolo[2,3-c]pyridazin-3-yl}-2,1,3-benzothiadiazol-5-ol], the IC50 is less than 100 nM.

In the case of `CC1(C)C[C@H](N2CCc3cc(-c4cc5oc(=O)[nH]c5cc4O)nnc32)[C@H](F)C(C)(C)N1` [Cpd 86, 6-{7-[(3S,4S)-3-fluoro-2,2,6,6-tetramethylpiperidin-4-yl]-6,7-dihydro-5H-pyrrolo[2,3-c]pyridazin-3-yl}-5-hydroxy-1,3-benzoxazol-2(3H)-one], the IC50 was less than 100 nM.

For orientation: IC50 means the concentration that inhibits the measured activity by half.
